Source: US6812235B2, “Beta-alanine derivatives and their use as receptor anatgonists” (Fujisawa Pharmaceutical Co., Ltd., priority 2000, dated 2004)

Tested on: platelet aggregation induced by ADP in platelet rich plasma (PRP)
Experiment: Effect on platelet aggregation induced by adenosine diphosphate (ADP)
Assay type: cell-based
Conditions: human PRP 3×10^8 platelets/ml; test compound in water, 2 minutes at 37° C.; ADP final 2.5 μM; aggregometer; read-out: IC50 (inhibition of ADP-induced platelet aggregation)
Method: Test: Effect on Platelet Aggregation Induced by Adenosine Diphosphate (ADP)
Platelet rich plasma (PRP) which contains 3×10^8 platelets/ml was prepared from human blood. To the 225 μl of PRP, 25 μl of the solution of the test compound in water was added, and then stirred for 2 minutes at 37° C. To the solution 5 μl of ADP (final 2.5 μM) was added as an aggregation inducer. Aggregation was measured by using an aggregometor (NBS HEMA-TRACER 801). Activity of […] (test compound) was expressed as IC50 value, i.e., dose required for […] of platelet aggregation.

`COC(=O)C(=O)N[C@@H](CNC(=O)[C@@H]1CCCN(C(=O)CCC2CCNCC2)C1)C(=O)O` [Example 25, N-[(3R)-1-{3-(4-piperidyl)-propionyl}-3-piperidylcarbonyl]-2(S)-methoxyoxalylamino-β-alanine] showed an IC50 of 85 nM.
